The experiment addresses Rho-associated protein kinase 2 (Homo sapiens, UniProt O75116). Put plainly: Binding Assay: ROCK-II inhibitory activity can be measured using the ROCK-II Assay Kit (Molecular Devices, inc.; Sunnyvale, Calif.).

Rho-associated protein kinase 2, sequence (O75116 whole entry): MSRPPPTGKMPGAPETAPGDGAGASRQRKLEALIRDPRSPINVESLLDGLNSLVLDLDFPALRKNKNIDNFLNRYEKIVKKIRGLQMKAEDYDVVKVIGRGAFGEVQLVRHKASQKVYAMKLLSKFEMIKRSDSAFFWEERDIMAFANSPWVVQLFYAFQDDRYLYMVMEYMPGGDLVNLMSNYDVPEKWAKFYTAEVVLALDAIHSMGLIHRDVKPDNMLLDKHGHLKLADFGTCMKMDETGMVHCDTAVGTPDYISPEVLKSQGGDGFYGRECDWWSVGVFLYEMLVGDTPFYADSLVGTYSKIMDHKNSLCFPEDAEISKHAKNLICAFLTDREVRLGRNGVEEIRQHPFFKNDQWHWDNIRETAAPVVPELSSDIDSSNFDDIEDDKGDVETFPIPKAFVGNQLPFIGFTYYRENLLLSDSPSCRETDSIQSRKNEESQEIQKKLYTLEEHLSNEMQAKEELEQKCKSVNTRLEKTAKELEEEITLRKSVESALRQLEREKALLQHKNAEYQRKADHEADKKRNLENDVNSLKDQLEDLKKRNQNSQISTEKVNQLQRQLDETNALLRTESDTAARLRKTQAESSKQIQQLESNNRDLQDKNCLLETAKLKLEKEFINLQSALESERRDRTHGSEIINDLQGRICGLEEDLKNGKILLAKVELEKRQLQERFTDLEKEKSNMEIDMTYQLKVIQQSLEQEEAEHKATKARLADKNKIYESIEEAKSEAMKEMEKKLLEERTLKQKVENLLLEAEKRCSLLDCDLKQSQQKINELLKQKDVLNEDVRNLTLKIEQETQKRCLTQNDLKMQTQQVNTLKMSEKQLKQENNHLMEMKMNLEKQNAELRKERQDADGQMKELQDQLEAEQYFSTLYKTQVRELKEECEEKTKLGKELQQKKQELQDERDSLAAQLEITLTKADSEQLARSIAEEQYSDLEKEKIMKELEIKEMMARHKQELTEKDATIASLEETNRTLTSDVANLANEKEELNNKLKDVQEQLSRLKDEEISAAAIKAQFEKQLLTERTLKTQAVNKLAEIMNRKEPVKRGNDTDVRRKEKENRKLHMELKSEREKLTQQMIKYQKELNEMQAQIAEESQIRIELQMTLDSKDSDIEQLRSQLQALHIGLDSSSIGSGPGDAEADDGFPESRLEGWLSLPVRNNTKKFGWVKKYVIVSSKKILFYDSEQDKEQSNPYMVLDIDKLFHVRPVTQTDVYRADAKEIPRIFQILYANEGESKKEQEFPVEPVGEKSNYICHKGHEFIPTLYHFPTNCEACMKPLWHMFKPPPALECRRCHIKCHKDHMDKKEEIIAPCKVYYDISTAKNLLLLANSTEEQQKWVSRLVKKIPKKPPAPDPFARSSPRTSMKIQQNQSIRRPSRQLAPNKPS

The compound `O=C(Nc1ccccc1-c1nc(Nc2ccc3[nH]ncc3c2)c2ccccc2n1)c1ccccn1` gave an IC50 of 8.3 µM. That is a single-digit micromolar value.

For orientation: IC50 means the concentration at which inhibition is half-maximal.

Source of the values: ChEMBL document CHEMBL5727603 (2020).
